# In US10010541B2, “Modulation of tissue transglutaminase activation in disease” (The Board of Trustees of the Leland Stanford Junior …, priority 2014, dated 2018):
# Like-named read-outs stand apart in the source and are kept apart here.
# Assays:
# [1] = target: T1, TG2 (Mus musculus, UniProt P21981); conditions: cited from earlier work
# T1 construct: host or cells: mice (in vivo)
# T1 sequence (P21981 1-686): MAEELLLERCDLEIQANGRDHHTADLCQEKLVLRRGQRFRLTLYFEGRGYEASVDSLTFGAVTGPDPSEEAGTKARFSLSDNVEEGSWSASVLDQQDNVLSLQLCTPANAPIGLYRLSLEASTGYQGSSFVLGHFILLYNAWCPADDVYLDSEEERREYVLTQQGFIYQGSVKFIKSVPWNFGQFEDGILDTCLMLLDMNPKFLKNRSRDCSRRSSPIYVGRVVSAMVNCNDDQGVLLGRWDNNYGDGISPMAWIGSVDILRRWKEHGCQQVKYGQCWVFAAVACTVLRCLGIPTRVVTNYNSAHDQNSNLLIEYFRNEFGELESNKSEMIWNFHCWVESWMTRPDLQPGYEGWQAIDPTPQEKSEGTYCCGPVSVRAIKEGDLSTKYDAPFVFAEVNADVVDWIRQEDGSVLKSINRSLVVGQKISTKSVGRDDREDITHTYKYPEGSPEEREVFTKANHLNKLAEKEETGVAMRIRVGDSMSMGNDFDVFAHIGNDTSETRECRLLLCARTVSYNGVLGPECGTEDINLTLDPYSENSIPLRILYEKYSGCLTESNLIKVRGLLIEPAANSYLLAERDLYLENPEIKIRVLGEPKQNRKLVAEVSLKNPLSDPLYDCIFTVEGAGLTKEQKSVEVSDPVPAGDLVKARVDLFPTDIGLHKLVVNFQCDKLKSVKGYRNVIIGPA
# [2] = target: T1, TG2; conditions: poly-I:C induced intestinal injury in mice; cited from earlier work
# [3] = target: T2, TG2 (Homo sapiens, UniProt P21980); conditions: cell culture; cited from earlier work
# T2 sequence (P21980 1-687): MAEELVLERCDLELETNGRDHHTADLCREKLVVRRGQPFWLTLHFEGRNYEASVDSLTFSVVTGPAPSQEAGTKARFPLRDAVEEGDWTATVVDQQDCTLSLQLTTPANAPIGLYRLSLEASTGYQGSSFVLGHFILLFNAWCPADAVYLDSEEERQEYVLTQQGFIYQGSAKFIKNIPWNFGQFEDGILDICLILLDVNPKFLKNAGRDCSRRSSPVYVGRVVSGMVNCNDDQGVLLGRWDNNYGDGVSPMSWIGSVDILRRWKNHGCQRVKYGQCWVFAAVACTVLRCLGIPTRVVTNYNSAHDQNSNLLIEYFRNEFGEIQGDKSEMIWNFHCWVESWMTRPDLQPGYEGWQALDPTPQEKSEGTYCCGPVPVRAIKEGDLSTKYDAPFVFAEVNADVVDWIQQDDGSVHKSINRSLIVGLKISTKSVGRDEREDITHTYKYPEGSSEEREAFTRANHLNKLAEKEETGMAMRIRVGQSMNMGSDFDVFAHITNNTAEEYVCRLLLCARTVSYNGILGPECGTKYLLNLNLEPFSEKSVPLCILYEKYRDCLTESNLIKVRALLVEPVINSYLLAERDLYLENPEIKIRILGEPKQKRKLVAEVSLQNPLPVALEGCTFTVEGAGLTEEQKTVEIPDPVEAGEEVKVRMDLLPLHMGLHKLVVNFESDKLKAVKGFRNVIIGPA
# [4] = system: proinflammatory cytokines IL-6, PAI-1 and MIP1α; test: circulating proinflammatory cytokines in LPS-induced murine sepsis (ELISA); format: in vivo, mice; conditions: septic mice (LPS 5 mg/kg iv); 1.5 mg/kg ip level; plasma at 3 hours
# Method: FIG. 3: The TG2 inhibitor CK996 reduces the proinflammatory cytokine load in septic mice at doses as low as 1.5 mg/kg: The graphs display the absolute circulating levels of the proinflammatory cytokines IL-6, PAI-1 and MIP1α in septic male BL6 mice as a function of the dose of intraperitoneally administered CK996 or ERW1041E. In each graph, the right y-axis depicts the relative levels of the respective cytokines over their background level in our control cohort. All septic mice in this study received lipopolysaccharide (LPS, 5 mg/kg i.v., at t=0) and either a TG2 inhibitor (CK996 or ERW1041E at 50, 15, 5.0 and 1.5 mg/kg i.p., at t=0 and 60 min) in vehicle (PBS with 5% DMSO, 2% Tween-80 and 2.5% hydroxypropyl-beta-cyclodextrin) or, for the septic control cohort, vehicle alone. An additional cohort defining the baseline cytokine levels received only intravenous vehicle and intraperitoneal inhibitor vehicle, respectively. At 3 hours the mice were euthanized and plasma collected in lithium heparin tubes. The levels of the respective proinflammatory cytokines were quantified using commercial ELISA kits according to the manufacturers' instructions. […]
# Having established that intraperitoneal administration of CK996 could suppress TG2 activity in septic mice, we next sought to determine whether this pharmacologic intervention had any effect on the circulating levels of the key proinflammatory cytokines in sepsis. To this end, we administered CK996 in doses of 1.5, 5.0, 15 or 50 mg/kg intraperitoneally to septic mice (5 mg/kg LPS, iv) and measured the level of the proinflammatory cytokines IL-6, PAI-1 and MIP1α in plasma that was collected at 3 hours after infusion of LPS.
# We therefore co-administered recombinant human thioredoxin protein (10 mg/kg, ip) along with CK996 (50 mg/kg, ip) to septic mice (5 mg/kg, iv) and quantified the load of proinflammatory cytokines as above.
# [5] = target: T2, TG2; conditions: cited from earlier work
# [6] = target: T3, TG1 (Homo sapiens, UniProt P22735); conditions: cited from earlier work
# T3 sequence (P22735 1-817): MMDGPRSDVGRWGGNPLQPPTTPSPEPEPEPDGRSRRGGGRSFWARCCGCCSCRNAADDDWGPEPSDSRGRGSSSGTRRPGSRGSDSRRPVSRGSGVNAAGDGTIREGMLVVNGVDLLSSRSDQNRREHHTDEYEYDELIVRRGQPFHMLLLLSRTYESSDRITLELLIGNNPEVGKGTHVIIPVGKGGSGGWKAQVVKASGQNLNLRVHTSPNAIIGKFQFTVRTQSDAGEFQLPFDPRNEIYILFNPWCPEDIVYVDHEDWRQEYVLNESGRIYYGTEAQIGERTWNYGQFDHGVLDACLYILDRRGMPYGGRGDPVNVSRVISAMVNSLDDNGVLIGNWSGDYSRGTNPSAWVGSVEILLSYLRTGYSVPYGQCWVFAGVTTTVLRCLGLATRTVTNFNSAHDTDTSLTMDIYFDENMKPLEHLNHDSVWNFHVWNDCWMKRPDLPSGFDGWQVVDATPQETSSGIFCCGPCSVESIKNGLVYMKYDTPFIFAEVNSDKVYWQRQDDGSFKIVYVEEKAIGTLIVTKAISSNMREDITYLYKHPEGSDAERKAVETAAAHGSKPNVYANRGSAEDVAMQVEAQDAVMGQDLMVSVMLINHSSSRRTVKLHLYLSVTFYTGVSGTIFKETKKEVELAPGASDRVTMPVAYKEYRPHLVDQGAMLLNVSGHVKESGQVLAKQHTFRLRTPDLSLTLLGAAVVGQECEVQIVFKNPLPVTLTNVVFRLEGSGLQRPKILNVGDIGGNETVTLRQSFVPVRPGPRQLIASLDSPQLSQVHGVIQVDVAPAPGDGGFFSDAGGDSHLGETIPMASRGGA
structure (smiles),measurement,setting,value
O=C(NC[C@@H]1CC(Br)=NO1)[C@@H]1CCCN1C(=O)OCc1cnc2ccccc2c1 [ERW1041E],catalytic activity of TG2,[1]; hypoxia-induced murine pulmonary hypertension,capable of blocking the catalytic activity of TG2
same,tolerability,[1]; twice daily administration for several weeks,well tolerated
same,catalytic activity of TG2,[2],capable of blocking the catalytic activity of TG2
same,catalytic activity of TG2,[3],capable of blocking the catalytic activity of TG2
same,"circulating levels of IL-6, PAI-1 and MIP1α",[4],no effect
same,potency as inhibitor of TG2,[5],moderately potent
same,potency against TG1 relative to TG2,[6],comparably potent
